According to ChEMBL document CHEMBL1131883, “Synthesis and evaluation of benzoxazinones as HIV-1 reverse transcriptase inhibitors. Analogs of Efavirenz (SUSTIVA)” (Bioorg Med Chem Lett, 1999):

Columns and labels:
[1] = molecular target: Human immunodeficiency virus type 1 reverse transcriptase (Human immunodeficiency virus 1, UniProt Q72547); assay: Inhibitory activity against HIV-1 reverse transcriptase
[2] = molecular target: Human immunodeficiency virus type 1 reverse transcriptase (Human immunodeficiency virus 1) (UniProt Q72547)

Compound | IC50 [1] [nM] | IC90 [2] [nM]
CCC#CC1(C(F)(F)F)OC(=O)Nc2ccc([N+](=O)[O-])cc21 (stereo not given) | 276 | 2.23
O=C1Nc2cccc(F)c2C(C#CC2CC2)(C(F)(F)F)O1 (stereo not given) | 78 | 4.34
CC(=O)Nc1ccc2c(c1)C(C#CC1CC1)(C(F)(F)F)OC(=O)N2 (stereo not given) | > 2000 | 296
CCCC#CC1(C(F)(F)F)OC(=O)Nc2cccc(F)c21 (stereo not given) | 156 | 5.64
CCC#CC1(C(F)(F)F)OC(=O)Nc2ccc(N)cc21 (stereo not given) | 1890 | 45.7
CC(C)C#CC1(C(F)(F)F)OC(=O)Nc2ccc(N)cc21 (stereo not given) | 896 | 27.5
CCCC#CC1(C(F)(F)F)OC(=O)Nc2ccc(N)cc21 (stereo not given) | 1510 | 33.5
CC(C)C#CC1(C(F)(F)F)OC(=O)Nc2ccc([N+](=O)[O-])cc21 (stereo not given) | 199 | 3.35
Nc1ccc2c(c1)C(C#CC1CC1)(C(F)(F)F)OC(=O)N2 (stereo not given) | 802 | 20.6
CC(=O)Nc1ccc2c(c1)C(C#CC(C)C)(C(F)(F)F)OC(=O)N2 (stereo not given) | > 2000 | 500
CCCC#CC1(C(F)(F)F)OC(=O)Nc2ccc([N+](=O)[O-])cc21 (stereo not given) | 304 | 4.57
CNc1ccc2c(c1)C(C#CC(C)C)(C(F)(F)F)OC(=O)N2 (stereo not given) | 473 | 10.2
O=C1Nc2ccc([N+](=O)[O-])cc2C(C#CC2CC2)(C(F)(F)F)O1 (stereo not given) | 209 | 0.83
CNc1ccc2c(c1)C(C#CC1CC1)(C(F)(F)F)OC(=O)N2 (stereo not given) | 608 | 9.02
CCC#CC1(C(F)(F)F)OC(=O)Nc2cccc(F)c21 (stereo not given) | 127 | 4.18
